Results published in patent US6251950A, “Aliphatic propargylamines as cellular rescue agents” (University of Saskatchewan, priority 1998, dated 2001).

Columns and labels:
Tourette's syndrome = Tourette's syndrome patients; cited from earlier work
[1] = tested on: catecholaminergic neuroblastoma SH-SY5Y cells; conditions: cited from earlier work
Alzheimer's disease = conditions: some patients; cited from earlier work
[2] = tested on: cerebellar granule cells (CGC); test: in vitro; assay type: cell-based, Wistar rat
Description: (§1) Cultures of cerebellar granule cells (CGC) can be induced into apoptosis by the addition of a high concentration of cytosine arabinoside (Ara C) (Dessi et al., 1995) and it has been shown that this is a p53 dependent apoptosis (Enokido et al, 1996). We have measured the antiapoptotic effect of N-(2-heptyl)propargylamine (2HPA) using this system and compared the results to those obtained with previously known aliphatic methyl propargylamines and deprenyl.
(§2) Cultures of CGC were obtained from 6-8 day old Wistar rat pups. Cultures were grown on glass in 35 mm petri dishes for 3 days and then used for experiments. 20 μl aliquots of drug solutions (Ara C, anti-apoptotic drugs, drug vehicles) were added to the medium of the cultures. 24 Hours later the cultures were fixed with FAM, and stained with bis-benzamide. Normal and apoptotic nuclei were counted to a total of 90-120 cells per culture. […] Concentrations in excess of 150 μM caused detachment of the cultures.
(§3) Compounds were added at the following concentrations: Ara C, 100 μM,

damaged neurons = conditions: some models; cited from earlier work
[3] = rodents and humans; cited from earlier work
Parkinson's disease = conditions: cited from earlier work
SOD1 mRNA, PC12 cells [4] = conditions: Li, et al., 1995; cited from earlier work
PC12 cells = conditions: cited from earlier work
[5] = target: T1, rat liver mitochondrial monoamine oxidase B (Rattus norvegicus, UniProt P19643); test: biochemical; assay type: biochemical
T1 sequence (P19643 1-520): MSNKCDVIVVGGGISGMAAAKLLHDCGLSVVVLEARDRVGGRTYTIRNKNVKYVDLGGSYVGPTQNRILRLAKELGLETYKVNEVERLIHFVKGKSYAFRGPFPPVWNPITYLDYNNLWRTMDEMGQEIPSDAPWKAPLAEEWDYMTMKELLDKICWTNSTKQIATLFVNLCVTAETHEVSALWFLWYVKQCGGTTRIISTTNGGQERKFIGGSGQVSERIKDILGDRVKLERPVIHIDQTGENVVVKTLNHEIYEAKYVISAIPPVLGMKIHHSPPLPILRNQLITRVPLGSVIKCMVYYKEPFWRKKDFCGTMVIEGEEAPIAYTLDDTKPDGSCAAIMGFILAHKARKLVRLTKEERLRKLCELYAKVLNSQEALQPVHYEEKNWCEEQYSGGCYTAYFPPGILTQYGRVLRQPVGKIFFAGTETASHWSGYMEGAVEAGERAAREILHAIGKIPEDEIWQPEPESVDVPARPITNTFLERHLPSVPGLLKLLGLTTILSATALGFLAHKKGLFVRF
Description: Enzyme activity was assessed using a radiometric method as previously described (Yu et al, 1992).

SOD1 mRNA, PC12 cells [6] = test: SOD1 mRNA levels in PC12 cells (Northern Blot); assay type: cell-based
Description: PC12 cells were used to study the gene regulation of SOD (copper, zinc-dependent type, i.e. SOD1) by (R)-2-heptylpropargylamine (R-2HPA).
The SOD1 mRNA levels were detected by Northern Blots using total RNA from cultured PC12 cells treated with R-2HPA for 24 hours. The blots were hybridized with SOD1 cDNA probe labelled with P^32 dCTP and the auto radiographs were scanned by a Beckman spectrometer.

c-Fos = test: Kainate-induced delayed c-Fos expression in hippocampal CA1 field; assay type: in vivo, rat
Description: (§4) The levels of both proteins were measured 24 h after a single injection of kainate (10 mg/Kg,i.p). The levels (assessed by quantitative immunohistochemical imaging) can be seen in Table 5.
(§5) Values are means ± sem (n = 5)
(§6) Kainate (10 mg/Kg, i.p.); Rats with seizures between stages IV severe to V
(§7) severe were used. R-2HPA (0.25 mg/Kg, s.c.) was administered 4 h after
(§8) kainate injection; HSP70 and c-Fos expression were assessed 24 h after
(§9) kainate treatment (for details of method please see Zhang et al, 1996).
(§10) Statistics were performed using ANOVA followed by Newman-Keuls multiple

HSP70 = test: Kainate-induced HSP70 expression in hippocampal CA1 field; assay type: in vivo, rat
Description: as §4, §5, §6, §7, §8, §9, §10

LNGFR mRNA, PC12 cells = test: LNGFR mRNA levels in PC12 cells (Northern Blot); assay type: cell-based
Description: The LNGFR mRNA levels were detected by Northern Blots using total RNA from cultured PC12 cells treated with R-2HPA for 24 hours. The blots were hybridized with LNGFR cDNA probe labelled with P^32 dCTP and the auto radiographs were scanned by a Beckman spectrometer.

mouse brain MAO-B = target: T2, mouse brain MAO-B (Mus musculus, UniProt Q8BW75); test: Inhibition in vivo of brain MAO-B activity after intraperitoneal administration
T2 construct: Striata were dissected from the brain two hours after i.p. administration of the drugs; from tissue; host or cells: mouse brain striata, dissected two hours after i.p. dosing
T2 sequence (Q8BW75 1-520): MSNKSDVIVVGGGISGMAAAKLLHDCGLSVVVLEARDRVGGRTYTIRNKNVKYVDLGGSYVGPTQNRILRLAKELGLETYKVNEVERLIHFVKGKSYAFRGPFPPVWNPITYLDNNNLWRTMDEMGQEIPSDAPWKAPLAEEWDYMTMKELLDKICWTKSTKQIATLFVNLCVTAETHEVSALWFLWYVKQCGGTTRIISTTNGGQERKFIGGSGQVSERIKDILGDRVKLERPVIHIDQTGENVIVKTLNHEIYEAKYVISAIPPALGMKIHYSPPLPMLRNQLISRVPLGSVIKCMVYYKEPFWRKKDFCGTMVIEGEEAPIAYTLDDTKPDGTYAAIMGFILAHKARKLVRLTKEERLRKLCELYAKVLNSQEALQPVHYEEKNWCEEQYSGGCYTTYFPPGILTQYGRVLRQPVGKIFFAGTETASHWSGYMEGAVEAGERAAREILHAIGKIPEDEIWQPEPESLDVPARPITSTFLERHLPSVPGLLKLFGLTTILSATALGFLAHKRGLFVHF
Description: Results are the average of two independent triplicate experiments for each i.p. dose. The doses were 0.5, 1, 2, 5, 10, 20 mg/Kg. Striata were dissected from the brain two hours after i.p. administration of the drugs. MAO-B activities were then determined immediately (Yu et al 1992). The values were estimated from dose-response curves.

[7] = tested on: pyramidal neurons in the hippocampus (CA1 neurons); test: Hypoxia/ischaemia model, CA1 neuron survival; assay type: in vivo, rat
hippocampal CA1 neurons = test: Kainic acid-induced neuronal damage; assay type: in vivo, rat; conditions: in words
in vitro = assay type: cell-based, Wistar rat; conditions: rat, cerebellar granule cells
Description: as §1, §2, §3

[8] = after kainate, rat hippocampal CA1 region
[9] = kainate 10 mg/Kg i.p., R-2HPA 0.25 mg/Kg s.c. 4 h after, assessed 24 h after kainate, mean ± sem (n = 5), *p < 0.01

Structure (SMILES): C#CCN(C)[C@H](C)Cc1ccccc1 [R-deprenyl]
- symptoms of attention deficit disorder (Tourette's syndrome): improved
- cytotoxicity of dopamine towards SH-SY5Y cells [1]: enhance the cytotoxicity of dopamine
- clinical condition of Alzheimer patients (Alzheimer's disease): improved the clinical condition of some Alzheimer patients
- blocking of Ara C induced apoptosis ([2]; 10^-7 M (FIG. 1c)): completely blocked
- concentrations required to prevent apoptosis versus minimum necessary for MAO-B inhibition (damaged neurons): at least an order of magnitude lower
- life span and sexual activity [3]: prolong life span and sexual activity
- effect in Parkinson's disease (Parkinson's disease; adjuvant to L-dopa): effective adjuvant to L-dopa
- onset of symptoms in Parkinson's disease (Parkinson's disease; early otherwise untreated cases, administered alone): delay onset of symptoms
- SOD1 mRNA induction (previous findings) (SOD1 mRNA, PC12 cells [4]): can induce SOD1 mRNA in a dose dependent manner
- prevention of apoptosis in PC12 cells (PC12 cells): can prevent apoptosis

Structure (SMILES): C#CCN[C@H](C)CCCCC.Cl [Example R-2HPA, (R)-N-2-Heptylpropargylamine hydrochloride]
- Comparison to most effective MAO-B inhibitor in group ([5]; in vitro, relative to most effective inhibitor in group): 0.8%
- IC50 ([5]; substrate PE (β-phenylethylamine) 1.9 × 10^-5 M, average of at least 2 independent triplicate experiments): 4 µM
- SOD1 gene expression (SOD1 mRNA, PC12 cells [6]; PC12 cells): stimulate SOD1 gene expression
- SOD1 mRNA level, % of control at 1 µM (SOD1 mRNA, PC12 cells [6]; Rattus norvegicus, PC-12, 1 μM, 24 hours, Mean ± SD (n = 4), **p < 0.01, control 100 ± 20): 184 ± 41%
- delayed c-Fos expression (c-Fos; [8]): able to block the expression of both genes
- Delayed c-Fos (Kainate + compound) (c-Fos; [9]): 4.5 ± 3.7
- HSP70 expression (HSP70; [8]): able to block the expression of both genes
- HSP70 (Kainate + compound) (HSP70; [9]): 4.6 ± 2.0
- LNGFR mRNA (LNGFR mRNA, PC12 cells; PC12 cells): downregulated LNGFR mRNA
- mrna remaining at 1 µM (LNGFR mRNA, PC12 cells; Rattus norvegicus, PC-12, 1 μM, 24 hours, Mean ± SD (n = 4), **p < 0.01, control 100 ± 5.4): 68.8 ± 16.4%
- inhibitory effect on mouse brain MAO-B (mouse brain MAO-B; i.p., compared with R-2HMP): weaker inhibitory effect
- Comparison to most effective inhibitor (mouse brain MAO-B; in vivo, i.p., relative to R-2HMP): 5%
- ED50 value fold higher than that of R-2HMP (mouse brain MAO-B; mouse brain MAO-B, i.p.): 20 fold
- ED50 (mouse brain MAO-B; mouse, ip, 2 h, read-out: IC50 (mg/Kg) (MAO-B, in vivo)): 4 mg/kg
- mean survival of CA1 neurons, percentage of vehicle treated controls (Table 2) ([7]; 0.1 μmol/kg, s.c., vehicle = 100%, ± sem (n = 6-10), **P < 0.01): 320 ± 48%
- response vs control in vivo at 0.1 µmol/kg ([7]; Rattus norvegicus, Neuron, sc, 0.1 μmol/kg, s.c., vehicle = 100%, ± sem (n = 6-10), *P < 0.05, **P < 0.01, read-out: Percentage survival of CA1 neurones, of vehicle treated controls (Table 4)): 320 ± 48%
- potency following oral administration versus R-2HMP ([7]; oral): more potent than its aliphatic methyl propargylamine analogue, R-2HMP
- activity in the hypoxia/ischaemia model ([7]; s.c.): Most active
- prevention of kainic acid-induced neuronal damage (hippocampal CA1 neurons): capable of preventing kainic acid-induced neuronal damage

Structure (SMILES): Nc1ccn([C@@H]2O[C@H](CO)[C@@H](O)[C@@H]2O)c(=O)n1 [Ara C, cytosine arabinoside]
- MCC at 24 h (in vitro): > 150 µM
- Percent Apoptotic Nuclei (Ara C alone) ([2]; Ara C 100 μM, mean ± sem of 4 cultures): 14.6 ± 0.9%
